Assay [1] concerns the target G protein-coupled receptor kinase 5 (Homo sapiens, UniProt P34947). Description: The low salt concentration and DDM were used to maximize GRK activity and disrupt small molecule aggregates from forming, respectively. […] Data was analyzed and inhibition curves were fit via GraphPad Prism.
The target of assay [2] is T1, Rhodopsin kinase GRK1 (Homo sapiens, UniProt Q15835).
T1 sequence (Q15835 whole entry): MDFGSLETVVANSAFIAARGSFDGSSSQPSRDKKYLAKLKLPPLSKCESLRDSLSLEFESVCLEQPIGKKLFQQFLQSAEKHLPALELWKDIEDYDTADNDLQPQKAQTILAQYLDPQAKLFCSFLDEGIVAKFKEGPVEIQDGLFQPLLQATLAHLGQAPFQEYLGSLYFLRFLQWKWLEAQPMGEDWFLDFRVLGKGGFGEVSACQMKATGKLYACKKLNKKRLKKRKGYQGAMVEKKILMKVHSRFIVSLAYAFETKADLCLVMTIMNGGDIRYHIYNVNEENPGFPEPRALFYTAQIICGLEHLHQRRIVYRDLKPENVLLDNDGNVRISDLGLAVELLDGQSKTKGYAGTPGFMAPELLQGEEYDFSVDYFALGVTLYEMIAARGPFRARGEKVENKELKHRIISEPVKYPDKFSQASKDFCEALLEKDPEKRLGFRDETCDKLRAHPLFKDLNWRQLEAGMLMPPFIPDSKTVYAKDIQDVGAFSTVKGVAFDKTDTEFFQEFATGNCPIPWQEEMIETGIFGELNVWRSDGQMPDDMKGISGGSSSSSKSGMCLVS
Description: The low salt concentration and DDM were used to maximize GRK activity and disrupt small molecule aggregates from forming, respectively. Reactions were quenched with SDS loading buffer, separated via SDS-PAGE, dried and exposed with a phosphorimaging screen prior to quantification via Typhoon imager, as previously reported (see Thal et al., ACS Chemical Biology 7(11):1830-1839 (2012)). Data was analyzed and inhibition curves were fit via GraphPad Prism.

Molecules are shown by their SMILES.

Results on four compounds are retold here after ChEMBL document CHEMBL5725686, “G protein-coupled receptor kinase 2 inhibitors and methods for use of the same” (2018).

G protein-coupled receptor kinase 5, sequence (P34947 whole entry): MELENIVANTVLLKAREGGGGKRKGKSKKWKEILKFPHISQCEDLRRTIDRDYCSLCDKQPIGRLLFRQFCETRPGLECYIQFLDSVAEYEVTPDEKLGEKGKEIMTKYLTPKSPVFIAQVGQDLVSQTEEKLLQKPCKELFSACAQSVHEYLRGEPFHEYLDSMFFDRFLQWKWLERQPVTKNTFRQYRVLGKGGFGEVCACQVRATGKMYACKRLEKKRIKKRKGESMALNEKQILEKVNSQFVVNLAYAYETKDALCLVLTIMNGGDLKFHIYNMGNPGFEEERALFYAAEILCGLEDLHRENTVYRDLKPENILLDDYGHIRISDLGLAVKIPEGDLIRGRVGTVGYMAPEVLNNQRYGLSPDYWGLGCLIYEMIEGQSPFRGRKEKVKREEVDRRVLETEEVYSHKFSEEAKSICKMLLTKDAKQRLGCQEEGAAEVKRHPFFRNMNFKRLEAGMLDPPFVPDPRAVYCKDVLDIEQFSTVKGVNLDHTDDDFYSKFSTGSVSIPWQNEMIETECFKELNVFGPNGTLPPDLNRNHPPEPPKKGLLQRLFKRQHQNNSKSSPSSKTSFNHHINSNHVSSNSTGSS

By IC50 is commonly meant the midpoint of a concentration-inhibition curve. Consider `C#CCN(Cc1ccco1)C(=O)Cc1cc(C2NC(=O)NC(C)=C2C(=O)Nc2ccc3[nH]ncc3c2)ccc1F` (centres undefined), for which the IC50 in assay [1] is 4.4 µM.

For `C#CCN(CC(C)C)C(=O)Cc1cc(C2NC(=O)NC(C)=C2C(=O)Nc2ccc3[nH]ncc3c2)ccc1F` (centres undefined), the IC50 in assay [1] is 8.9 µM. Turning to `CC1=C(C(=O)Nc2ccc3[nH]ncc3c2)C(c2ccc(F)c(C(=O)NCc3nccc4ccccc34)c2)NC(=O)N1` (centres undefined), in assay [1], the half-inhibitory concentration (IC50) turned out to be 5.4 µM. Regarding `CC1=C(C(=O)Nc2ccc3[nH]ncc3c2)C(c2ccc(F)c(CC(=O)N(CCO)Cc3ccco3)c2)NC(=O)N1` (centres undefined), the half-maximal inhibitory concentration (IC50) in assay [2] was 21 µM.
